Experimental data as given in patent publication US9353081B2, “Bicyclic dihydroquinoline-2-one derivatives” (Hoffmann-La Roche Inc., priority 2011, dated 2016).

Legend:
human CYP11B2 = human CYP11B2 (Homo sapiens (Human), UniProt P19099); assay: G-402 cellular enzyme assay, human CYP11B2 (aldosterone release, HTRF); type: cell-based; conditions: G-402 cells expressing human CYP11B2; 1 μM Deoxycorticosterone
Source text: (§1) Specifically we developed stable G-402 cells expressing ectopically human CYP11B1, human CYP11B2, human CYP11A1, cynomolgus CYP11B1 or cynomolgus CYP11B2 enzyme activity.
(§2) The expression plasmids contains the ORF for either human/cyno CYP11B1 or CYP11B2 under the control of a suitable promoter (CMV-promoter) and a suitable resistance marker (neomycin). Using standard techniques the expression plasmid is transfected into G-402 cells and these cells are then selected for expressing the given resistance markers. Individual cell-clones are then selected and assessed for displaying the desired enzymatic activity using 11-Deoxycorticosterone (Cyp11B2) or 11-Deoxycortisol (Cyp11B1) as a substrate.
(§3) For assaying enzymatic activity, cells were plated onto 96 well plates and incubated for 16 h. An aliquot of the supernatant is then transferred and analyzed for the concentration of the expected product (Aldosterone for CYP11B2; Cortisol for CYP11B1). The concentrations of these steroids can be determined using HTRF assays from CisBio analyzing either Aldosterone or Cortisol.
(§4) Inhibition of the release of produced steroids can be used as a measure of the respective enzyme inhibition by test compounds added during the cellular enzyme assay. The dose dependent inhibition of enzymatic activity by a compound is calculated by means of plotting added inhibitor concentrations x-axes) vs. measured steroid/product level (y-axes). The inhibition is then calculated by fitting the following 4-parameter sigmoidal function (Morgan-Mercer-Flodin (MMF) model) to the raw data points using the least squares method:
(§5) [formula] wherein, A is the maximum y value, B is the EC50 factor determined using XLFit, C is the minimum y value and D is the slope value.
(§6) EC50 values for compounds claimed herein were tested with the G402-based assay system described. Cyp11B2 enzyme activity was tested in presence of 1 μM Deoxycorticosterone and variable amounts of inhibitors; Cyp11B1 enzyme activity was tested in presence of 1 μM Deoxycortisol and variable amounts of inhibitors.

human CYP11B1 = human CYP11B1 (Homo sapiens (Human), UniProt P15538); assay: G-402 cellular enzyme assay, human CYP11B1 (cortisol release, HTRF); type: cell-based; conditions: G-402 cells expressing human CYP11B1; 1 μM Deoxycortisol
Source text: as §1, §2, §3, §4, §5, §6

Chain of human CYP11B1 (P15538 25-503): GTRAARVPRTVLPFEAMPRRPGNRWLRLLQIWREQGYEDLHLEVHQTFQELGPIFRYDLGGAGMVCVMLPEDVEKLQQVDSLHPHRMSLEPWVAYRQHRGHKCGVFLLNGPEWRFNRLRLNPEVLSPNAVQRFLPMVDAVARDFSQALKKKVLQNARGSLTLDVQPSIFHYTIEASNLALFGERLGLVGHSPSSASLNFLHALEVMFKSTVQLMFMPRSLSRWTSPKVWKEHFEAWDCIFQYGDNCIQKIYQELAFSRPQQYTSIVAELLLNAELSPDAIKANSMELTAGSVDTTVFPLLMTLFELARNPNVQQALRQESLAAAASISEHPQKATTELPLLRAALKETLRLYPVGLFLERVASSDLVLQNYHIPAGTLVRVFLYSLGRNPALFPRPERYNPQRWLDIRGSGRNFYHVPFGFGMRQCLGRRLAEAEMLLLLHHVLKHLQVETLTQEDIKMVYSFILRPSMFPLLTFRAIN
Chain of human CYP11B2 (P19099 25-503): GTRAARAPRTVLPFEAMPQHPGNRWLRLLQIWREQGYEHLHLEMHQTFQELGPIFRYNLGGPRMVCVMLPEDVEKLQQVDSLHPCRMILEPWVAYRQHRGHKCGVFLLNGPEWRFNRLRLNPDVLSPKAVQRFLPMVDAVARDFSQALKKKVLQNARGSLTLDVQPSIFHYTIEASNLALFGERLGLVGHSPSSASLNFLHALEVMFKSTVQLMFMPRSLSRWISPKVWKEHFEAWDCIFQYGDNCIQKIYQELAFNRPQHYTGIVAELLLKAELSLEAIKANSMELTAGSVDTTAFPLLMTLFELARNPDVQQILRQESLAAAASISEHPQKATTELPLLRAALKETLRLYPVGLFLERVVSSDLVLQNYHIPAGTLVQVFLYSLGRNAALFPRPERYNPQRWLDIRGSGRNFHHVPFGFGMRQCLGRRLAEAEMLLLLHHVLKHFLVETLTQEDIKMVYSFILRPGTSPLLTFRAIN

Row | Compound | EC50 (human CYP11B2) | EC50 (human CYP11B1)
1 | CC(O)C(=O)NC1CCCc2c(-c3ccc4c(c3)CCC(=O)N4C)cncc21 [Example 15, (2R,S)-2-Hydroxy-N-[(4R,S)-4-(1-methyl-2-oxo-1,2,3,4-tetrahydroquinolin-6-yl)-5,6,7,8-tetrahydroisoquinolin-8-yl]propanamide] | 77.3 nM | 574 nM
2 | CN1C(=O)CCc2cc(-c3cncc4c3CCC[C@H]4NS(=O)(=O)C3CC3)ccc21 [Example 66, Cyclopropanesulfonic acid [(R)-4-(1-methyl-2-oxo-1,2,3,4-tetrahydro-quinolin-6-yl)-5,6,7,8-tetrahydro-isoquinolin-8-yl]-amide] | 35.5 nM | 319 nM
3 | C[C@@H](O)C(=O)NC1CCCc2c(-c3ccc4c(c3)CCC(=O)N4C)cncc21 (stereo partly drawn) [Example 16, (2R)-2-Hydroxy-N-((4R,S)-4-(1-methyl-2-oxo-1,2,3,4-tetrahydroquinolin-6-yl)-5,6,7,8-tetrahydroisoquinolin-8-yl)propanamide] | 30.8 nM | 1050 nM
4 | CCS(=O)(=O)NC1CCc2c(-c3cc4c(cc3F)N(C)C(=O)CC4)cncc21 (single isomer, unassigned; (-)) [Example 26, (−)-(S or R)—N-(4-(7-Fluoro-1-methyl-2-oxo-1,2,3,4-tetrahydroquinolin-6-yl)-6,7-dihydro-5H-cyclopenta[c]pyridin-7-yl)ethanesulfonamide] | 4550 nM | –
5 | CCC(=O)NC1CCCc2c(-c3cc(Cl)c4c(c3)CCC(=O)N4C)cncc21 (racemic) [Example 33, (rac)-N-[4-(8-Chloro-1-methyl-2-oxo-1,2,3,4-tetrahydro-quinolin-6-yl)-5,6,7,8-tetrahydro-isoquinolin-8-yl]-propionamide] | 79.8 nM | 11600 nM
6 | CCC(=O)N[C@H]1c2cncc(-c3ccc4c(c3)CCC(=O)N4C)c2CC[C@H]1F (single isomer, unassigned) [Example 53, (+)-N-[(7R,8S or 7S,8R)-7-Fluoro-4-(1-methyl-2-oxo-1,2,3,4-tetrahydro-quinolin-6-yl)-5,6,7,8-tetrahydro-isoquinolin-8-yl]-propionamide] | 122 nM | 3570 nM
7 | CCC(=O)N[C@H]1c2cncc(-c3ccc4c(c3)CCC(=O)N4C)c2CC[C@@H]1F (single isomer, unassigned) [Example 52, (+)-N-[(7S,8S or 7R,8R)-7-Fluoro-4-(1-methyl-2-oxo-1,2,3,4-tetrahydro-quinolin-6-yl)-5,6,7,8-tetrahydro-isoquinolin-8-yl]-propionamide] | 25.8 nM | 1590 nM
8 | CCS(=O)(=O)NC1CCc2c(-c3cc4c(cc3F)N(C)C(=O)CC4)cncc21 (single isomer, unassigned; (+)) [Example 27, (+)-(R or S)—N-(4-(7-Fluoro-1-methyl-2-oxo-1,2,3,4-tetrahydroquinolin-6-yl)-6,7-dihydro-5H-cyclopenta[c]pyridin-7-yl)ethanesulfonamide] | 11.2 nM | 1890 nM
9 | CCS(=O)(=O)NC1CCCc2c(-c3cc(Cl)c4c(c3)CCC(=O)N4C)cncc21 (single isomer, unassigned; (-)) [Example 39, (−)-Ethanesulfonic acid [(S or R)-4-(8-chloro-1-methyl-2-oxo-1,2,3,4-tetrahydro-quinolin-6-yl)-5,6,7,8-tetrahydro-isoquinolin-8-yl]-amide] | 130 nM | –
10 | CN1C(=O)CCc2cc(-c3cncc4c3CCC[C@H]4N)ccc21 [Example 61, (R)-6-(8-Amino-5,6,7,8-tetrahydroisoquinolin-4-yl)-1-methyl-3,4-dihydroquinolin-2(1H)-one] | 5.6 nM | 450 nM
11 | CCC(=O)N[C@@H]1c2cncc(-c3ccc4c(c3)CCC(=O)N4C)c2CC[C@H]1F (single isomer, unassigned) [Example 50, (−)-N-[(7R,8R or 7S,8S)-7-Fluoro-4-(1-methyl-2-oxo-1,2,3,4-tetrahydro-quinolin-6-yl)-5,6,7,8-tetrahydro-isoquinolin-8-yl]-propionamide] | 4320 nM | –
12 | CCS(=O)(=O)NC1CCCc2c(-c3ccc4c(c3)CCC(=O)N4C)cncc21 (single isomer, unassigned; (-)) [Example 5, (−)-(R or S)—N-(4-(1-Methyl-2-oxo-1,2,3,4-tetrahydroquinolin-6-yl)-5,6,7,8-tetrahydroisoquinolin-8-yl)ethanesulfonamide] | 1290 nM | 11800 nM
13 | CCC(=O)NC1CCCc2c(-c3ccc4c(c3)CCC(=O)N4C)cncc21 (racemic) [Example 1, (rac)-N-(4-(1-Methyl-2-oxo-1,2,3,4-tetrahydroquinolin-6-yl)-5,6,7,8-tetrahydroisoquinolin-8-yl)propionamide] | 30 nM | 2370 nM
14 | CCC(=O)N[C@H]1c2cncc(-c3ccc4c(c3)CCC(=O)N4C)c2CC[C@@H]1C (single isomer, unassigned) [Example 42, (+)-N-[(7S,8R or 7R,8S)-7-Methyl-4-(1-methyl-2-oxo-1,2,3,4-tetrahydro-quinolin-6-yl)-5,6,7,8-tetrahydro-isoquinolin-8-yl]-propionamide] | 14.5 nM | 524 nM
15 | CCS(=O)(=O)NC1CCCc2c(-c3cc4c(cc3F)N(C)C(=O)CC4)cncc21 (single isomer, unassigned; (-)) [Example 31, (−)-(S or R)-Ethanesulfonic acid [4-(7-fluoro-1-methyl-2-oxo-1,2,3,4-tetrahydro-quinolin-6-yl)-5,6,7,8-tetrahydro-isoquinolin-8-yl]-amide] | 1040 nM | 14500 nM
16 | CCC(=O)NC1CCCc2c(-c3cc(Cl)c4c(c3)CCC(=O)N4C)cncc21 (single isomer, unassigned; (-)) [Example 40, (−)-N—[(S or R)-4-(8-Chloro-1-methyl-2-oxo-1,2,3,4-tetrahydro-quinolin-6-yl)-5,6,7,8-tetrahydro-isoquinolin-8-yl]-propionamide] | 126 nM | –
17 | CCS(=O)(=O)NC1CCCc2c(-c3cc(Cl)c4c(c3)CCC(=O)N4C)cncc21 (single isomer, unassigned; (+)) [Example 38, (+)-Ethanesulfonic acid [(R or S)-4-(8-chloro-1-methyl-2-oxo-1,2,3,4-tetrahydro-quinolin-6-yl)-5,6,7,8-tetrahydro-isoquinolin-8-yl]-amide] | 422 nM | 15900 nM
18 | CCC(=O)NC1CCc2c(-c3cc(Cl)c4c(c3)CCC(=O)N4C)cncc21 (single isomer, unassigned; (+)) [Example 60, (+)-(R or S)—N-(4-(8-Chloro-1-methyl-2-oxo-1,2,3,4-tetrahydroquinolin-6-yl)-6,7-dihydro-5H-cyclopenta[c]pyridin-7-yl)propionamide] | 8.8 nM | 1170 nM
19 | CCC(=O)N[C@H]1c2cncc(-c3ccc4c(c3)CCC(=O)N4C)c2CC[C@H]1C (single isomer, unassigned) [Example 49, (+)-N-[(7R,8R or 7S,8S)-7-Methyl-4-(1-methyl-2-oxo-1,2,3,4-tetrahydro-quinolin-6-yl)-5,6,7,8-tetrahydro-isoquinolin-8-yl]-propionamide] | 44.2 nM | 3950 nM
20 | CN1C(=O)CCc2cc(-c3cncc4c3CCC[C@H]4NC(=O)c3ncccc3Cl)ccc21 [Example 62, 3-Chloro-pyridine-2-carboxylic acid [(R)-4-(1-methyl-2-oxo-1,2,3,4-tetrahydro-quinolin-6-yl)-5,6,7,8-tetrahydro-isoquinolin-8-yl]-amide] | 5.3 nM | 558 nM
21 | CCC(=O)NC1CCc2c(-c3cc4c(cc3F)N(C)C(=O)CC4)cncc21 (single isomer, unassigned; (-)) [Example 23, (−)-(S or R)—N-(4-(7-Fluoro-1-methyl-2-oxo-1,2,3,4-tetrahydroquinolin-6-yl)-6,7-dihydro-5H-cyclopenta[c]pyridin-7-yl)propionamide] | 1380 nM | –
22 | CCC(=O)NC1CCCc2c(-c3cc4c(cc3Cl)N(C)C(=O)CC4)cncc21 (single isomer, unassigned) [Example 35, N—[(R or S)-4-(7-Chloro-1-methyl-2-oxo-1,2,3,4-tetrahydro-quinolin-6-yl)-5,6,7,8-tetrahydro-isoquinolin-8-yl]-propionamide] | 1770 nM | –
23 | CCC(=O)NC1CCc2c(-c3cc(Cl)c4c(c3)CCC(=O)N4C)cncc21 (single isomer, unassigned; (-)) [Example 59, (−)-(S or R)—N-(4-(8-Chloro-1-methyl-2-oxo-1,2,3,4-tetrahydroquinolin-6-yl)-6,7-dihydro-5H-cyclopenta[c]pyridin-7-yl)propionamide] | 3290 nM | –
24 | CCC(=O)N[C@@H]1c2cncc(-c3ccc4c(c3)CCC(=O)N4C)c2CC[C@H]1C (single isomer, unassigned) [Example 47, (−)-N-[(7R,8S or 7S,8R)-7-Methyl-4-(1-methyl-2-oxo-1,2,3,4-tetrahydro-quinolin-6-yl)-5,6,7,8-tetrahydro-isoquinolin-8-yl]-propionamide] | 1820 nM | –
